Data taken from ChEMBL document CHEMBL1158811, “Echinamines A and B, first aminated hydroxynaphthazarins from the sea urchin Scaphechinus mirabilis” (J Nat Prod, 2005).

System: Radical scavenging activity
Test: Antioxidant activity assessed as DPPH radical scavenging activity
Type: functional

Row | SMILES | EC50
1 | CCc1c(O)c(O)c2c(c1O)C(=O)C(O)=C(N)C2=O [ECHINAMINE A] | 10 µM
2 | CCc1c(O)c(O)c2c(c1O)C(=O)C(N)=C(O)C2=O [ECHINAMINE B] | 10 µM
3 | CCC1=C(O)C(=O)c2c(O)c(O)c(O)c(O)c2C1=O [ECHINOCHROME A] | 10 µM
4 | O=C1C(O)=C(O)C(=O)c2c(O)c(O)cc(O)c21 [SPINOCHROME D] | 10 µM
